Measurements published in paper PMC5034043 (The Journal of Biological Chemistry, 2016).
“Also recorded” adds a separate entry of the source.

Assays:
[1] = test system: α1β2γ2 GABAA receptors; conditions: heterologously expressed receptors; cited from earlier work
[2] = at even 100-fold higher concentrations than propofol; cited from earlier work
[3] = test system: GABAA receptor subunits; assay: Western blotting of streptavidin-captured GABAA receptor subunits with ligand protection; assay type: binding, mouse; conditions: AziPm-click (1) 10 μM, protecting ligand 100 μM, UV irradiation; n = 4
Method: (§1) Synaptosomes were resuspended to 1 mg of protein/ml in HEPES buffer medium (in mM: 140 NaCl, 5 KCl, 5 NaHCO3, 1.2 NaH2PO4, 1 MgCl2, 10 glucose, and 10 HEPES (pH 7.4)). […] The samples were allowed to equilibrate for 5 min before being transferred to a parafilm-sealed 1-mm path length quartz cuvette. The sample was then irradiated for 20 min at a peak bandwidth of 350 nm (Rayonet RPR-3500 lamp) ∼6 cm from the light source. Non-irradiated samples were left in the dark at ambient temperature (22–25 °C) for 20 min. All remaining procedures were conducted with restricted light exposure.
To 750 μg of photolabeled or control synaptosome samples, 40 μl of 10% SDS and 2 μl of 5 mM DTT in water were added. Samples were then vortexed, heated for 10 min at 65 °C, and then briefly cooled. Final concentrations of 150 μM azide-biotin (Click Chemistry Tools), 2 mM tris(3-hydroxypropyltriazolylmethyl)amine (Sigma), 1 mM ascorbic acid (Sigma), and 1 mM CuSO4·5H2O (Sigma) were added to each sample and vortexed vigorously. The samples were left in the dark at ambient temperature (22–25 °C) for 1 h with mild agitation. Directly to each sample 4× volume chilled methanol, 1.5× chilled chloroform, and 3× chilled double distilled H2O were added. Samples were vortexed vigorously and centrifuged at 1,400 × g for 30 min at 4 °C. […]

[4] = test system: alkylphenol-binding proteins within synaptosomes; assay: Fluorescent profiling: protection from AziPm-click (1) photolabeling of synaptosomes; parameters: species or system mouse; conditions: propofol 75–375 μM; ketamine 150–450 μM; triplicate
Method: as §1

SMILES	activity on GABAA receptor [1]	immobilization [2]	protection of GABAA receptor α and β subunits from AziPm-click (1) capture [3]	fluorescent labeling of synaptosomal proteins by AziPm-click (1) in presence of protecting ligand [4]
CC(C)c1cccc(C(C)C)c1F [fropofol, 2-fluoro-1,3-diisopropylbenzene]	did not modulate or disrupt propofol potentiation; also recorded: no activity	did not cause immobilization	unable to protect	–
CNC1(c2ccccc2Cl)CCCCC1=O (stereo not shown) [ketamine]	–	–	–	no changes in fluorescence intensity
